# Values quoted from earlier work, collected in PubChem BioAssay AID1259409 (Chemical Carcinogenesis Research Information System (CCRIS), 2018).
# Test system: rodent chemically induced tumor inhibition, incidence and multiplicity
# Assay: CCRIS tumor inhibitor studies
# Conditions: Carcinogen: 7,12-DIMETHYLBENZ[A]ANTHRACENE, 57-97-6
structure (smiles),measurement,setting,value
CC1=C(/C=C/C(C)=C/C=C/C(C)=C/C(=O)O)C(C)(C)CCC1,"tumour outcome (control, treated, inhibition, significance)","Dose [Inhibitor]: 0, 2 NMOL IN 200 µL ACETONE APPLIED 30 MIN PRIOR TO EACH PROMOTER DOSE 2/WK FOR 25 WK BEGINNING 1 WK POST CARCINOGEN DOS, Route [Inhibitor]: DERMAL, Species: MOUSE, Strain/Sex: CD-1/FEMALE, Target Tissue: Type of Lesion: SKIN: PAPILLOMA, Dose [Carcinogen]: 200 NMOL IN 200 µL ACETONE ONCE, Promoter: 12-O-TETRADECANOYLPHORBOL-13-ACETATE, 16561-29-8","90%, 83%, 8%, not calculated"
same,"tumour outcome (control, treated, inhibition, significance)","Dose [Inhibitor]: 0, 2 NMOL IN 200 µL ACETONE APPLIED 30 MIN PRIOR TO EACH PROMOTER DOSE 2/WK FOR 25 WK BEGINNING 1 WK POST CARCINOGEN DOS, Route [Inhibitor]: DERMAL, Species: MOUSE, Strain/Sex: CD-1/FEMALE, Target Tissue: Type of Lesion: SKIN: PAPILLOMA, Dose [Carcinogen]: 200 NMOL IN 200 µL ACETONE ONCE, Promoter: MIREX, 2385-85-5","100%, 100%, 0%, not significant"
same,"tumour outcome (control, treated, inhibition, significance)","Dose [Inhibitor]: 0, 3 NMOL IN 0.1 ML ACETONE 2/WK APPLIED 40 MIN PRIOR TO EACH PROMOTER DOSE FOR 20 WK (STUDY DURATION: 21 WK), Route [Inhibitor]: DERMAL, Species: MOUSE, Strain/Sex: ICR/FEMALE, Target Tissue: Type of Lesion: SKIN: PAPILLOMA, Dose [Carcinogen]: 100 UG IN 0.1 ML ACETONE ONCE, Promoter: 12-0-TETRADECANOYLPHORBOL-13-ACETATE, 16561-29-8","99%, 68%, 31%, p<0.01"
same,"tumour outcome (control, treated, inhibition, significance)","Dose [Inhibitor]: 0, 5 NMOL IN 200 µL ACETONE APPLIED 30 MIN PRIOR TO EACH PROMOTER DOSE 2/WK FOR 25 WK BEGINNING 1 WK POST CARCINOGEN DOS, Route [Inhibitor]: DERMAL, Species: MOUSE, Strain/Sex: CD-1/FEMALE, Target Tissue: Type of Lesion: SKIN: PAPILLOMA, Dose [Carcinogen]: 200 NMOL IN 200 µL ACETONE ONCE, Promoter: 12-O-TETRADECANOYLPHORBOL-13-ACETATE, 16561-29-8","90%, 76%, 16%, not calculated"
same,"tumour outcome (control, treated, inhibition, significance)","Dose [Inhibitor]: 0, 5 NMOL IN 200 µL ACETONE APPLIED 30 MIN PRIOR TO EACH PROMOTER DOSE 2/WK FOR 25 WK BEGINNING 1 WK POST CARCINOGEN DOS, Route [Inhibitor]: DERMAL, Species: MOUSE, Strain/Sex: CD-1/FEMALE, Target Tissue: Type of Lesion: SKIN: PAPILLOMA, Dose [Carcinogen]: 200 NMOL IN 200 µL ACETONE ONCE, Promoter: MIREX, 2385-85-5","100%, 100%, 0%, not significant"
same,"tumour outcome (control, treated, inhibition, significance)","Dose [Inhibitor]: 0, 10 UG IN 0.2 ML ACETONE 1/WK FOR 5 WK APPLIED 60 MIN PRIOR TO EACH PROMOTER DOSE BEGINNING 1 WK POST CARCINOGEN DOSE, Route [Inhibitor]: DERMAL, Species: MOUSE, Strain/Sex: SENCAR/FEMALE, Target Tissue: Type of Lesion: SKIN: PAPILLOMA, Dose [Carcinogen]: 20 UG IN 0.2 ML ACETONE ONCE, Promoter: 12-O-TETRADECANOYLPHORBOL-13-ACETATE, 16561-29-8","50%, 10%, 80%, p<0.0001"
same,"tumour outcome (control, treated, inhibition, significance)","Dose [Inhibitor]: 0, 10 UG IN 0.2 ML ACETONE 1/WK FOR 20 WK APPLIED 60 MIN PRIOR TO EACH PROMOTER DOSE BEGINNING 1 WK POST CARCINOGEN DOSE, Route [Inhibitor]: DERMAL, Species: MOUSE, Strain/Sex: SENCAR/FEMALE, Target Tissue: Type of Lesion: SKIN: PAPILLOMA, Dose [Carcinogen]: 20 UG IN 0.2 ML ACETONE ONCE, Promoter: 12-O-TETRADECANOYLPHORBOL-13-ACETATE, 16561-29-8","95%, 55%, 42%, p<0.05"
same,"tumour outcome (control, treated, inhibition, significance)","Dose [Inhibitor]: 0, 10 UG IN 0.2 ML ACETONE 2/WK FOR 19 WK BEGINNING 15 WK POST PROMOTION TREATMENT (STUDY DURATION: 49 WK), Route [Inhibitor]: DERMAL, Species: MOUSE, Strain/Sex: SENCAR/FEMALE, Target Tissue: Type of Lesion: SKIN: CARCINOMA, Dose [Carcinogen]: 20 UG IN 0.2 ML ACETONE ONCE, Promoter: 12-O-TETRADECANOYLPHORBOL-13-ACETATE, 16561-29-8","99%, 54%, 45%, p<0.01"
same,"tumour outcome (control, treated, inhibition, significance)","Dose [Inhibitor]: 0, 10 UG IN 0.2 ML ACETONE 2/WK FOR 19 WK BEGINNING POST PROMOTION TREATMENT (STUDY DURATION: 49 WK), Route [Inhibitor]: DERMAL, Species: MOUSE, Strain/Sex: SENCAR/FEMALE, Target Tissue: Type of Lesion: SKIN: CARCINOMA, Dose [Carcinogen]: 20 UG IN 0.2 ML ACETONE ONCE, Promoter: 12-O-TETRADECANOYLPHORBOL-13-ACETATE, 16561-29-8","88%, 52%, 41%, p<0.01"
same,"tumour outcome (control, treated, inhibition, significance)","Dose [Inhibitor]: 0, 10 UG IN 0.2 ML ACETONE 2/WK FOR 19 WK BEGINNING POST PROMOTION TREATMENT (STUDY DURATION: 49 WK), Route [Inhibitor]: DERMAL, Species: MOUSE, Strain/Sex: SENCAR/FEMALE, Target Tissue: Type of Lesion: SKIN: CARCINOMA, Dose [Carcinogen]: 20 UG IN 0.2 ML ACETONE ONCE, Promoter: MEZEREIN, 34807-41-5","100%, 65%, 35%, p<0.01"
same,"tumour outcome (control, treated, inhibition, significance)","Dose [Inhibitor]: 0, 10 UG IN 0.2 ML ACETONE 2/WK FOR 20 WK APPLIED 60 MIN PRIOR TO EACH PROMOTER DOSE BEGINNING 1 WK POST CARCINOGEN DOSE, Route [Inhibitor]: DERMAL, Species: MOUSE, Strain/Sex: SENCAR/FEMALE, Target Tissue: Type of Lesion: SKIN: PAPILLOMA, Dose [Carcinogen]: 20 UG IN 0.2 ML ACETONE ONCE, Promoter: MEZEREIN, 34807-41-5","86%, 56%, 35%, p<0.05"
same,"tumour outcome (control, treated, inhibition, significance)","Dose [Inhibitor]: 0, 30 UG/G OF DIET FOR DURATION OF STUDY (STUDY DURATION: 35 WK), Route [Inhibitor]: ORAL, Species: MOUSE, Strain/Sex: SENCAR/FEMALE, Target Tissue: Type of Lesion: SKIN: PAPILLOMA, Dose [Carcinogen]: 25.5 UG IN 0.2 ML ACETONE 1/WK FOR 20 WK, Promoter: NONE USED","100%, 90%, 10%, not significant (at 20 wk)"
same,"tumour outcome (control, treated, inhibition, significance)","Dose [Inhibitor]: 0, 30 UG/G OF DIET FOR DURATION OF STUDY (STUDY DURATION: 35 WK), Route [Inhibitor]: ORAL, Species: RAT, Strain/Sex: SENCAR/FEMALE, Target Tissue: Type of Lesion: SKIN: CARCINOMA, Dose [Carcinogen]: 25.5 UG IN 0.2 ML ACETONE 1/WK FOR 20 WK, Promoter: NONE USED","24%, 19%, 21%, not significant"
same,"tumour outcome (control, treated, inhibition, significance)","Dose [Inhibitor]: 0, 30 UG/G OF DIET FOR DURATION OF STUDY (STUDY DURATION: 40 WK), Route [Inhibitor]: ORAL, Species: MOUSE, Strain/Sex: SENCAR/FEMALE, Target Tissue: Type of Lesion: SKIN: CARCINOMA, Dose [Carcinogen]: 20 UG IN 0.2 ML OF ACETONE ONCE, Promoter: 12-O-TETRADECANOYLPHORBOL-13-ACETATE, 16561-29-8","30%, 11%, 63%, p=0.027"
same,"tumour outcome (control, treated, inhibition, significance)","Dose [Inhibitor]: 0, 30 UG/G OF DIET FOR DURATION OF STUDY (STUDY DURATION: 40 WK), Route [Inhibitor]: ORAL, Species: MOUSE, Strain/Sex: SENCAR/FEMALE, Target Tissue: Type of Lesion: SKIN: CARCINOMA, Dose [Carcinogen]: 20 UG IN 0.2 ML OF ACETONE ONCE, Promoter: MEZEREIN, 34807-41-5","31%, 5%, 84%, p=0.002"
same,"tumour outcome (control, treated, inhibition, significance)","Dose [Inhibitor]: 1.7 NMOL IN 0.2 ML ACETONE 1 HR PRIOR TO EACH PROMOTER DOSE FOR 12 WK (STUDY DURATION: 14 WK), Route [Inhibitor]: DERMAL, Species: MOUSE, Strain/Sex: SENCAR/FEMALE, Target Tissue: Type of Lesion: SKIN: PAPILLOMA, Dose [Carcinogen]: 200 NMOL IN 0.2 ML ACETONE ONCE, Promoter: 12-O-TETRADECANOYLPHORBOL-13-ACETATE, 16561-29-8","100%, 100%, 0%, not calculated"
same,"tumour outcome (control, treated, inhibition, significance)","Dose [Inhibitor]: 1.7 NMOL IN 0.2 ML ACETONE 1 HR PRIOR TO EACH PROMOTER DOSE FOR 20 WK (STUDY DURATION: 22 WK), Route [Inhibitor]: DERMAL, Species: MOUSE, Strain/Sex: CD-1/FEMALE, Target Tissue: Type of Lesion: SKIN: PAPILLOMA, Dose [Carcinogen]: 200 NMOL IN 0.2 ML ACETONE ONCE, Promoter: 12-O-TETRADECANOYLPHORBOL-13-ACETATE, 16561-29-8","94%, 80%, 15%, not calculated"
same,"tumour outcome (control, treated, inhibition, significance)","Dose [Inhibitor]: 1.7 NMOL IN 0.2 ML ACETONE 2/WK 1 HR BEFORE EACH PROMOTER APPLICATION STARTING 14 D AFTER CARCINOGEN APPLICATION AND CON, Route [Inhibitor]: DERMAL, Species: MOUSE, Strain/Sex: CD-1/FEMALE, Target Tissue: Type of Lesion: SKIN: PAPILLOMA, Dose [Carcinogen]: 0.2 UMOL IN 0.2 ML ACETONE ONCE, Promoter: 12-O-TETRADECANOYLPHORBOL-13-ACETATE, 16561-29-8","100%, 90%, 10%, not significant"
same,"tumour outcome (control, treated, inhibition, significance)","Dose [Inhibitor]: 3, 30 UG IN DIET FOR DURATION OF STUDY (STUDY DURATION: 44 WK), Route [Inhibitor]: ORAL, Species: MOUSE, Strain/Sex: SENCAR/FEMALE, Target Tissue: Type of Lesion: SKIN: PAPILLOMA, Dose [Carcinogen]: 20 UG IN 0.2 ML ACETONE ONCE, Promoter: 12-O-TETRADECANOYLPHORBOL-13-ACETATE, 16561-29-8","100%, 100%, 0%, not significant"
same,"tumour outcome (control, treated, inhibition, significance)","Dose [Inhibitor]: 3, 30 UG/G OF DIET FOR DURATION OF STUDY BEGINNING POST CARCINOGEN DOSE (STUDY DURATION: 40 WK), Route [Inhibitor]: ORAL, Species: MOUSE, Strain/Sex: SENCAR/FEMALE, Target Tissue: Type of Lesion: SKIN: CARCINOMA, Dose [Carcinogen]: 20 UG IN 0.2 ML ACETONE ONCE AT 7 WK OF AGE, Promoter: 12-O-TETRADECANOYLPHORBOL-13-ACETATE, 16561-29-8","12/38 (32%), 3/30 (10%), 69%, p<0.05"
same,"tumour outcome (control, treated, inhibition, significance)","Dose [Inhibitor]: 3, 30 UG/G OF DIET FOR DURATION OF STUDY BEGINNING POST CARCINOGEN DOSE (STUDY DURATION: 40 WK), Route [Inhibitor]: ORAL, Species: MOUSE, Strain/Sex: SENCAR/FEMALE, Target Tissue: Type of Lesion: SKIN: CARCINOMA, Dose [Carcinogen]: 20 UG IN 0.2 ML ACETONE ONCE AT 7 WK OF AGE, Promoter: MEZEREIN, 34807-41-5","12/39 (31%), 5/40 (13%), 58%, p<0.05"
